The results in this text go back to US20120157385A1, “CYCLOSPORIN CONJUGATES” (UCL Business PLC, priority 2009, published 2012).

Data set [1] deals with rat heart cells (ventricular cardiomyocytes). In words: Oxygen and glucose deprivation / reoxygenation induced necrosis of heart cells. In kind it is cell-based.
Another data set deals with cyclophilin D (CyP-D) (Rattus norvegicus, UniProt P29117). The data set is described as follows: PPIase assay, inhibition of recombinant CyP-D by cyclosporins.
Data set [2] deals with intramitochondrial CyP-D rather than extramitochondrial CyP-A. The conditions noted are these: for mitochondrial matrix/extramitochondrial accumulation ratio: isolated rat liver mitochondria plus recombinant CyP-A, 25° C.
For data set [3], the system named is Permeability Transition (PT) pore. The data set is described as follows: Ca2+-induced PT pore opening (swelling, absorbance at 540 nm) in isolated mitochondria. The class given is biochemical. The conditions noted are these: read-out: concentration giving 50% inhibition of PT pore opening; isolated rat liver mitochondria, 50 μM Ca2+ infused slowly.
Another data set deals with CyP-D(+) B50 cells. The data set is described as follows: TMRE uptake (inner membrane potential) in B50 cells and CyP-D overexpressing clone. The class given is cell-based, rat.
Data set [4] concerns caspase-3 activation in B50 cells. The data set is described as follows: Nitroprusside-induced caspase-3 activation in B50 cells (marker of CyP-A activity). The class given is cell-based, rat. To be noted: 100 μM nitroprusside 40 min, assayed after 5 hr, Compound 1 at 2.5 μM.
The subject of a further data set is rat hippocampal neurons. The data set is described as follows: Oxygen and glucose deprivation (pseudo ischaemia/reperfusion) induced necrosis of hippocampal neurons. The class given is cell-based. The conditions noted are these: for protection against neuron mortality (necrosis) following OGD: within 90 min, about 60% of neurons necrotic without compound.

cyclophilin D (CyP-D), sequence (P29117 30-206): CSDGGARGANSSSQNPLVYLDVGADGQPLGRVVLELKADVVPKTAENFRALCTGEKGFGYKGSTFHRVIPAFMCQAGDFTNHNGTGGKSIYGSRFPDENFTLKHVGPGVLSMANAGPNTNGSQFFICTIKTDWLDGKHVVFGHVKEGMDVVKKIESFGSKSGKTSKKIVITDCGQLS

What is called Ki is a dissociation constant, usually derived from enzyme kinetics or from competition with a known ligand. As for `CC[C@@H]1NC(=O)[C@H]([C@H](O)[C@H](C)C/C=C/C(=O)NCCOCCNC(=O)CC[P+](c2ccccc2)(c2ccccc2)c2ccccc2)N(C)C(=O)[C@H](C(C)C)N(C)C(=O)[C@H](CC(C)C)N(C)C(=O)[C@H](CC(C)C)N(C)C(=O)[C@@H](C)NC(=O)[C@H](C)NC(=O)[C@H](CC(C)C)N(C)C(=O)[C@H](C(C)C)NC(=O)[C@H](CC(C)C)N(C)C(=O)CN(C)C1=O` [Compound 2, (16R,17R,E)-17-((2S,5S,11S,14S,17S,20S,23R,26S,29S,32S)-5-ethyl-11,17,26,29-tetraisobutyl-14,32-diisopropyl-1,7,10,16,20,23,25,28,31-nonamethyl-3,6,9,12,15,18,21,24,27,30,33-undecaoxo-1,4,7,10,13,16,19,22,25,28,31-undecaazacyclotritriacontan-2-yl)-17-hydroxy-16-methyl-4,12-dioxo-1,1,1-triphenyl-8-oxa-5,11-diaza-1-phosphoniaheptadec-13-ene], the necrosis during reoxygenation entry in data set [1] (5 hours reoxygenation, in particular first 3 hours) is listed as “inhibited”. The “necrosis induced by OGD for 4 hours” value in data set [1] (before reoxygenation, with or without compound) was “negligible necrosis”. Besides, the “cytoprotection at 15 nM” value in data set [1] (necrosis after 3 hours of reoxygenation, 15 nM) was “complete protection”. Moreover, the inhibition constant (Ki) on cyclophilin D (CyP-D) is 30 nM. Moreover, in data set [2], the “mitochondrial matrix/extramitochondrial accumulation ratio” value is on record as over 10.

On to `C/C=C/C[C@@H](C)[C@@H](O)[C@H]1C(=O)N[C@@H](CC)C(=O)N(C)C(Cc2ccc(C(=O)NCCCCCCNC(=O)c3ccc(-c4c5ccc(=[N+](C)C)cc-5oc5cc(N(C)C)ccc45)cc3)cc2)C(=O)N(C)[C@@H](CC(C)C)C(=O)N[C@@H](C(C)C)C(=O)N(C)[C@@H](CC(C)C)C(=O)N[C@@H](C)C(=O)N[C@H](C)C(=O)N(C)[C@@H](CC(C)C)C(=O)N(C)[C@@H](CC(C)C)C(=O)N(C)[C@@H](C(C)C)C(=O)N1C` (some centres unmarked) [Compound 4], for which the Ki at cyclophilin D (CyP-D) was found to be 120 nM. The “mitochondrial matrix/extramitochondrial accumulation ratio” value in data set [2] came out at 4.2.

With `C/C=C/C[C@@H](C)[C@@H](O)[C@H]1C(=O)N[C@@H](CC)C(=O)N(C)C(Cc2ccc(C(=O)NCCCCCCNC(=O)CCCCC[P+](c3ccccc3)(c3ccccc3)c3ccccc3)cc2)C(=O)N(C)[C@@H](CC(C)C)C(=O)N[C@@H](C(C)C)C(=O)N(C)[C@@H](CC(C)C)C(=O)N[C@@H](C)C(=O)N[C@H](C)C(=O)N(C)[C@@H](CC(C)C)C(=O)N(C)[C@@H](CC(C)C)C(=O)N(C)[C@@H](C(C)C)C(=O)N1C` (stereo partly drawn) [Compound 1, (6-(6-(4-(((5S,8S,11S,14S,17R,20S,23S,26S,29S,32S)-32-ethyl-29-((1R,2R,E)-1-hydroxy-2-methylhex-4-enyl)-5,11,20,23-tetraisobutyl-8,26-diisopropyl-1,4,10,14,17,19,22,25,28-nonamethyl-3,6,9,12,15,18,21,24,27,30,33-undecaoxo-1,4,7,10,13,16,19,22,25,28,31-undecaazacyclotritriacontan-2-yl)methyl)benzamido)hexylamino)-6-oxohexyl)triphenylphosphonium], the IC50 in data set [3] is about 400 nM. Besides, the “concentration for maximal restoration of TMRE uptake by CyP-D(+) cells” value with CyP-D(+) B50 cells (B50 clone overexpressing CyP-D about 10-fold, 50 nM TMRE) is about 2400 nM. Besides, the “effect on TMRE uptake by wild type cells” value with CyP-D(+) B50 cells (wild type B50 cells, 0.8 μM CsA, 2.4 μM Compound 1) is “did not affect”. Besides, the “effect on nitroprusside-induced activation of caspase-3” value in data set [4] was “no significant effect”. Moreover, the “protection against neuron mortality (necrosis) following OGD” value in the data set on rat hippocampal neurons (30 min OGD) is on record as “approximately halved”. In addition, the “concentration giving maximal protection against OGD-induced necrosis” value in the data set with rat hippocampal neurons (hippocampal neurons, 30 min OGD) was over 0.8 µM. Besides, the “inhibition of PT pore formation compared with inhibition of extramitochondrial CyP-A” value in data set [2] (same incubation, CyP-A activity in supernatant) is “considerably better”.

For `C/C=C/C[C@@H](C)[C@@H](O)[C@H]1C(=O)N[C@@H](CC)C(=O)N(C)C(Cc2ccc(C(=O)NCCOCCNC(=O)CC[P+](c3ccccc3)(c3ccccc3)c3ccccc3)cc2)C(=O)N(C)[C@@H](CC(C)C)C(=O)N[C@@H](C(C)C)C(=O)N(C)[C@@H](CC(C)C)C(=O)N[C@@H](C)C(=O)N[C@H](C)C(=O)N(C)[C@@H](CC(C)C)C(=O)N(C)[C@@H](CC(C)C)C(=O)N(C)[C@@H](C(C)C)C(=O)N1C` (stereo partly drawn) [Compound 3, 12-(4-(((5S,8S,11S,14S,17R,20S,23S,26S,29S,32S)-32-ethyl-29-((1R,2R,E)-1-hydroxy-2-methylhex-4-enyl)-5,11,20,23-tetraisobutyl-8,26-diisopropyl-1,4,10,14,17,19,22,25,28-nonamethyl-3,6,9,12,15,18,21,24,27,30,33-undecaoxo-1,4,7,10,13,16,19,22,25,28,31-undecaazacyclotritriacontan-2-yl)methyl)phenyl)-4,12-dioxo-1,1,1-triphenyl-8-oxa-5,11-diaza-1-phosphoniadodecane], the Ki at cyclophilin D (CyP-D) was 6 nM. In data set [2], the “mitochondrial matrix/extramitochondrial accumulation ratio” value was over 10.

For `C/C=C/C[C@@H](C)[C@@H](O)[C@H]1C(=O)N[C@@H](CC)C(=O)N(C)CC(=O)N(C)[C@@H](CC(C)C)C(=O)N[C@@H](C(C)C)C(=O)N(C)[C@@H](CC(C)C)C(=O)N[C@@H](C)C(=O)N[C@H](C)C(=O)N(C)[C@@H](CC(C)C)C(=O)N(C)[C@@H](CC(C)C)C(=O)N(C)[C@@H](C(C)C)C(=O)N1C` [CsA, Cyclosporin A], in the data set with rat hippocampal neurons (30 min OGD), the “protection against neuron mortality (necrosis) following OGD” value was “less protective”. Moreover, in the data set with rat hippocampal neurons (hippocampal neurons, 0.1 μM), the “protection against OGD-induced necrosis at 0.1 μM” value is listed as “relatively small protection”. For the same molecule, the “protection against OGD-induced necrosis at higher concentrations” value in the data set with rat hippocampal neurons (hippocampal neurons, above 0.1 μM) is “reversed”. In data set [1] (necrosis after 3 hours of reoxygenation), this molecule returned a maximal protection of 42%.
